Laboratory results: ChEMBL document CHEMBL4811240, “Discovery of N-substituted sulfamoylbenzamide derivatives as novel inhibitors of STAT3 signaling pathway based on Niclosamide” (Eur J Med Chem, 2021)
Calls of active or inactive are those of the source. The calls are words filed in the database; no cut-off is given here.

Experiments:
[1] = system: MDA-MB-231; test: Antiproliferative activity against human MDA-MB-231 cells assessed as inhibition of cell viability after 48 hrs by MTT assay; format: functional, cell-based; details: MDA-MB-231, 48 h
[2] = biological target: Signal transducer and activator of transcription 3 (Homo sapiens) (UniProt P40763); test: Inhibition of IL-6 induced STAT3 phosphorylation in human MDA-MB-231 cells at 5 uM incubated for 2 hrs by Western blotting analysis; format: cell-based
[3] = biological target: Signal transducer and activator of transcription 1-alpha/beta (Homo sapiens) (UniProt P42224); test: Inhibition of IL-6 induced STAT1 phosphorylation in human MDA-MB-231 cells at 1 to 10 uM preincubated for 2 hrs followed by IL-6 stimulation and measured after 45 mins by Western blotting analysis; format: cell-based; details: dose 1-10 µM, time 165.0 min
[4] = biological target: Epidermal growth factor receptor (Homo sapiens) (UniProt P00533); test: Inhibition of wild-type EGFR (669 to 1210 residues) (unknown origin) expressed in Sf21 cells at 10 uM preincubated for 10 mins followed by peptide substrate addition relative to control
[5] = system: Epidermal growth factor receptor (Homo sapiens), P00533 [T790M]; test: Inhibition of EGFR T790M mutant (669 to 1210 residues) (unknown origin) expressed in Sf21 cells at 10 uM preincubated for 10 mins followed by peptide substrate addition relative to control
[6] = biological target: Tyrosine-protein kinase JAK2 (Homo sapiens) (UniProt O60674); test: Inhibition of JAK2 (826 to 1132 residues) (unknown origin) expressed in Sf21 cells at 10 uM preincubated for 10 mins followed by peptide substrate addition relative to control
[7] = biological target: Fibroblast growth factor receptor 1 (Homo sapiens) (UniProt P11362); test: Inhibition of FGFR1 (398 to 822 residues) (unknown origin) expressed in Sf21 cells at 10 uM preincubated for 10 mins followed by peptide substrate addition relative to control
[8] = biological target: Fibroblast growth factor receptor 3 (Homo sapiens) (UniProt P22607); test: Inhibition of FGFR3 (436 to 806 residues) (unknown origin) expressed in Sf21 cells at 10 uM preincubated for 10 mins followed by peptide substrate addition relative to control
[9] = biological target: Fibroblast growth factor receptor 4 (Homo sapiens) (UniProt P22455); test: Inhibition of FGFR4 (460 to 802 residues) (unknown origin) expressed in Sf21 cells at 10 uM preincubated for 10 mins followed by peptide substrate addition relative to control
[10] = biological target: RAC-alpha serine/threonine-protein kinase (Homo sapiens) (UniProt P31749); test: Inhibition of human N-terminal His-tagged full length AKT1 (1 to 480 residues) expressed in Sf9 cells at 10 uM preincubated for 10 mins followed by peptide substrate addition relative to control
[11] = biological target: Mitogen-activated protein kinase 3 (Homo sapiens) (UniProt P27361); test: Inhibition of N-terminal GST-tagged full length ERK1 (1 to 379 residues) (unknown origin) expressed in Escherichia coli at 10 uM preincubated for 10 mins followed by peptide substrate addition relative to control
[12] = biological target: Dual specificity mitogen-activated protein kinase kinase 1 (Homo sapiens) (UniProt Q02750); test: Inhibition of N-terminal GST-tagged full length MEK1 (1 to 393 residues) (unknown origin) expressed in Sf21 cells at 10 uM preincubated for 10 mins followed by peptide substrate addition relative to control
[13] = biological target: ALK tyrosine kinase receptor (Homo sapiens) (UniProt Q9UM73); test: Inhibition of ALK (1058 to 1620 residues) (unknown origin) expressed in Sf21 cells at 10 uM preincubated for 10 mins followed by peptide substrate addition relative to control
[14] = biological target: Mast/stem cell growth factor receptor Kit (Homo sapiens) (UniProt P10721); test: Inhibition of c-KIT (544 to 976 residues) (unknown origin) expressed in Sf21 cells at 10 uM preincubated for 10 mins followed by peptide substrate addition relative to control
[15] = biological target: Cyclin-dependent kinase 1/cyclin B1 (Homo sapiens) (UniProt P06493+P14635); test: Inhibition of N-terminal GST-tagged full length CDK1/cyclin B1 (unknown origin) expressed in Sf21 cells at 10 uM preincubated for 10 mins followed by peptide substrate addition relative to control
[16] = biological target: Insulin-like growth factor 1 receptor (Homo sapiens) (UniProt P08069); test: Inhibition of IGF1R (959 to 1367 residues) (unknown origin) expressed in Sf21 cells at 10 uM preincubated for 10 mins followed by peptide substrate addition relative to control
[17] = biological target: Inhibitor of nuclear factor kappa-B kinase subunit beta (Homo sapiens) (UniProt O14920); test: Inhibition of IKKbeta (1 to 662 residues) (unknown origin) expressed in Sf21 cells at 10 uM preincubated for 10 mins followed by peptide substrate addition relative to control
[18] = biological target: Mitogen-activated protein kinase 9 (Homo sapiens) (UniProt P45984); test: Inhibition of N-terminal GST-tagged JNK2 (1 to 364 residues) (unknown origin) expressed in Escherichia coli at 10 uM preincubated for 10 mins followed by peptide substrate addition relative to control
[19] = biological target: Serine/threonine-protein kinase PLK1 (Homo sapiens) (UniProt P53350); test: Inhibition of full length PLK1 (1 to 603 residues) (unknown origin) expressed in Sf21 at 10 uM preincubated for 10 mins followed by peptide substrate addition relative to control
[20] = biological target: Wee1-like protein kinase (Homo sapiens) (UniProt P30291); test: Inhibition of Wee1 (215 to 646 residues) (unknown origin) expressed in Sf21 at 10 uM preincubated for 10 mins followed by peptide substrate addition relative to control
[21] = biological target: Signal transducer and activator of transcription 3 (Homo sapiens) (UniProt P40763); test: Inhibition of STAT3 promoter activity in human MDA-MB-231 cells at 1 uM incubated for 24 hrs by dual luciferase reporter assay; format: cell-based
[22] = system: MDA-MB-231; test: Induction of apoptosis in human MDA-MB-231 cells assessed as increase in cleaved PARP expression at 1 to 10 uM incubated for 24 hrs by Western blot analysis; format: functional, cell-based; details: dose 1-10 µM
[23] = system: MDA-MB-231; test: Induction of apoptosis in human MDA-MB-231 cells assessed as increase in cleaved caspase 3 expression at 1 to 10 uM incubated for 24 hrs by Western blot analysis; format: functional, cell-based; details: dose 1-10 µM
[24] = system: MDA-MB-231; test: Induction of apoptosis in human MDA-MB-231 cells assessed as apoptotic cells at 1 uM measured after 24 hrs by annexinV-FITC/propidium iodide staining based flow cytometry analysis (reference value: 2.49%); format: functional
[25] = system: MDA-MB-231; test: Induction of apoptosis in human MDA-MB-231 cells assessed as apoptotic cells at 2.5 uM measured after 24 hrs by annexinV-FITC/propidium iodide staining based flow cytometry analysis (reference value: 2.49%); format: functional
[26] = system: MDA-MB-231; test: Induction of apoptosis in human MDA-MB-231 cells assessed as apoptotic cells at 5 uM measured after 24 hrs by annexinV-FITC/propidium iodide staining based flow cytometry analysis (reference value: 2.49%); format: functional
[27] = Toxicity in BALB/c nude mouse xenografted with human MDA-MB-231 cells assessed as effect on body weight at 30 mg/kg, ig administered every two days; format: organism-based; details: in vivo, po

Sequence of Signal transducer and activator of transcription 3 (Homo sapiens) (P40763 whole entry): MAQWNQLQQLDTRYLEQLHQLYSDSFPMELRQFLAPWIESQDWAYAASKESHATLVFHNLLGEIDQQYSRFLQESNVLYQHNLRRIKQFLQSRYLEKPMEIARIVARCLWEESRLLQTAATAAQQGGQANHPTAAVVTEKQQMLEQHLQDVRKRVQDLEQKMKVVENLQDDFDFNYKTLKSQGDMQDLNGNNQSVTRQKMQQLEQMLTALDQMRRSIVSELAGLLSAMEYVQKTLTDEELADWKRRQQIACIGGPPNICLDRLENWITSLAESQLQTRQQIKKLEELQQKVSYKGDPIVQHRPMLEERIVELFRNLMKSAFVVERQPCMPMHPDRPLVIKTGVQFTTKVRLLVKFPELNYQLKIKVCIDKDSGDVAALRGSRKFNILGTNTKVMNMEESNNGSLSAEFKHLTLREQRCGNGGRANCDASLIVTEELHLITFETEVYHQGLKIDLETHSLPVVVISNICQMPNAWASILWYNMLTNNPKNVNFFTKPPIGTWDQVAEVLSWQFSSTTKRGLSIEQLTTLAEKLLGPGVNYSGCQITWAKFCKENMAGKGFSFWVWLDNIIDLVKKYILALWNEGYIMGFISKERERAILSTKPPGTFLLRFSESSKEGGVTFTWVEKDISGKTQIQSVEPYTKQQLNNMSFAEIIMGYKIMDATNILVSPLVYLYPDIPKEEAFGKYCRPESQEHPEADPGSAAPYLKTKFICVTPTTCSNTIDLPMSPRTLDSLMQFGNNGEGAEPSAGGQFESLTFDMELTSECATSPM
Sequence of Fibroblast growth factor receptor 1 (Homo sapiens) (P11362 22-822 limits assumed): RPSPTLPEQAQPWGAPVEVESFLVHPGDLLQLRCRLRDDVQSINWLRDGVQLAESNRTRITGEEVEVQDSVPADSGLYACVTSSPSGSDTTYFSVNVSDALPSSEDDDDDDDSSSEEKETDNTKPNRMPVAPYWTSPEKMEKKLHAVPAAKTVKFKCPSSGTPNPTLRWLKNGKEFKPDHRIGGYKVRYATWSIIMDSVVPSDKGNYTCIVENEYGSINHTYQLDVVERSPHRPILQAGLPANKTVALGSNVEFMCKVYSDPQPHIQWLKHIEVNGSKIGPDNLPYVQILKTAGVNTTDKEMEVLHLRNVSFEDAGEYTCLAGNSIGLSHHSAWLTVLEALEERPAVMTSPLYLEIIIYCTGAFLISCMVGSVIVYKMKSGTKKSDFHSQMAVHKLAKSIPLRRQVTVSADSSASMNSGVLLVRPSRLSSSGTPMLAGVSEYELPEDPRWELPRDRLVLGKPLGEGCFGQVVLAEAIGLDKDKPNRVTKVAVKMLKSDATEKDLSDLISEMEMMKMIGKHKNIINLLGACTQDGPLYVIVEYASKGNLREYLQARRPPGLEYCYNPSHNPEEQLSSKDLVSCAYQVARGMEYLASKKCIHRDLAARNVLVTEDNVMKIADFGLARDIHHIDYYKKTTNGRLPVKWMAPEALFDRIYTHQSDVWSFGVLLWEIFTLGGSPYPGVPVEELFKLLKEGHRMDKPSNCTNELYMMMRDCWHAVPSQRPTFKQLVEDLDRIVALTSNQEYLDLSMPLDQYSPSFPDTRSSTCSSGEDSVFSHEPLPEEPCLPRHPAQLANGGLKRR
Sequence of Cyclin-dependent kinase 1/cyclin B1 (Homo sapiens) (P06493 whole entry, looked up, the tested form may be a part): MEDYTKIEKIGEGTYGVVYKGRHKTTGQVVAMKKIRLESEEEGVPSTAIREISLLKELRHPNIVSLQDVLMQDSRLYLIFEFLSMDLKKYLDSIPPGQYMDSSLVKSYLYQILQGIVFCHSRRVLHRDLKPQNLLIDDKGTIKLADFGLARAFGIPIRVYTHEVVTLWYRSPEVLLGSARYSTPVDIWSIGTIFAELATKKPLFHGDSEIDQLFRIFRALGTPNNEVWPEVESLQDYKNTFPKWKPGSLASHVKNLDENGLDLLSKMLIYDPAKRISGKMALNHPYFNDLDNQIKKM
Sequence of Cyclin-dependent kinase 1/cyclin B1 (Homo sapiens) (P14635 whole entry, looked up, the tested form may be a part): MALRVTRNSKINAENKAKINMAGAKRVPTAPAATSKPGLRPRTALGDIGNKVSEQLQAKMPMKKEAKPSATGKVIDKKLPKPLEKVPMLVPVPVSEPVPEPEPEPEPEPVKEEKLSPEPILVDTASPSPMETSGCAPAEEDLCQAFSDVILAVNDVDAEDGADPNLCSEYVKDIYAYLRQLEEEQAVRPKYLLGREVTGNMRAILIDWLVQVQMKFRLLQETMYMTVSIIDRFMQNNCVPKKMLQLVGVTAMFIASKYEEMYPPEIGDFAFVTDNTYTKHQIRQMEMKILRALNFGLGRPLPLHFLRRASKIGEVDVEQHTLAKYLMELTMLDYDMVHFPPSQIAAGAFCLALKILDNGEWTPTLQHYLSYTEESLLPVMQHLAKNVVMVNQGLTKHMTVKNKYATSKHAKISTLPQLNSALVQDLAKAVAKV
Sequence of Fibroblast growth factor receptor 3 (Homo sapiens) (P22607 23-806 limits assumed): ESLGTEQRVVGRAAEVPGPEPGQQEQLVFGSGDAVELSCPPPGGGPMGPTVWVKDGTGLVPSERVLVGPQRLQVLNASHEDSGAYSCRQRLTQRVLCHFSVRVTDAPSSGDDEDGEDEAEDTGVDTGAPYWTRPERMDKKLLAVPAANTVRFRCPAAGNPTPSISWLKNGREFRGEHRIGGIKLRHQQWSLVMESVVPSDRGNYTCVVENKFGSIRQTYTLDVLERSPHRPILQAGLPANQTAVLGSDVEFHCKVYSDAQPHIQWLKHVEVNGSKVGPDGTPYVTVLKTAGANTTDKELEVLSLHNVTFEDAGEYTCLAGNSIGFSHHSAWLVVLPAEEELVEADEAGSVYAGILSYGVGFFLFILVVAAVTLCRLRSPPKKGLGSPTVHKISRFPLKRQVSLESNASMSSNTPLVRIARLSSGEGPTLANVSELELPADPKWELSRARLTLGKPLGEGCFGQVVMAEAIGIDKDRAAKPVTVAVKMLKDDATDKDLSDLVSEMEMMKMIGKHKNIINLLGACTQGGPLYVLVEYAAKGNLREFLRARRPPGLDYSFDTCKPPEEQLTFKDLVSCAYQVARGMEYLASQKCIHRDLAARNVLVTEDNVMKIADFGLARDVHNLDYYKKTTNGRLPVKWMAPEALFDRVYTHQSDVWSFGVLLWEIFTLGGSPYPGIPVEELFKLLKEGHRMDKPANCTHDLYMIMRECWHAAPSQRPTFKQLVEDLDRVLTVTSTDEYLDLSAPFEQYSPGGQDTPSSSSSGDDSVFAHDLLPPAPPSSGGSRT
Sequence of Fibroblast growth factor receptor 4 (Homo sapiens) (P22455 22-802 limits assumed): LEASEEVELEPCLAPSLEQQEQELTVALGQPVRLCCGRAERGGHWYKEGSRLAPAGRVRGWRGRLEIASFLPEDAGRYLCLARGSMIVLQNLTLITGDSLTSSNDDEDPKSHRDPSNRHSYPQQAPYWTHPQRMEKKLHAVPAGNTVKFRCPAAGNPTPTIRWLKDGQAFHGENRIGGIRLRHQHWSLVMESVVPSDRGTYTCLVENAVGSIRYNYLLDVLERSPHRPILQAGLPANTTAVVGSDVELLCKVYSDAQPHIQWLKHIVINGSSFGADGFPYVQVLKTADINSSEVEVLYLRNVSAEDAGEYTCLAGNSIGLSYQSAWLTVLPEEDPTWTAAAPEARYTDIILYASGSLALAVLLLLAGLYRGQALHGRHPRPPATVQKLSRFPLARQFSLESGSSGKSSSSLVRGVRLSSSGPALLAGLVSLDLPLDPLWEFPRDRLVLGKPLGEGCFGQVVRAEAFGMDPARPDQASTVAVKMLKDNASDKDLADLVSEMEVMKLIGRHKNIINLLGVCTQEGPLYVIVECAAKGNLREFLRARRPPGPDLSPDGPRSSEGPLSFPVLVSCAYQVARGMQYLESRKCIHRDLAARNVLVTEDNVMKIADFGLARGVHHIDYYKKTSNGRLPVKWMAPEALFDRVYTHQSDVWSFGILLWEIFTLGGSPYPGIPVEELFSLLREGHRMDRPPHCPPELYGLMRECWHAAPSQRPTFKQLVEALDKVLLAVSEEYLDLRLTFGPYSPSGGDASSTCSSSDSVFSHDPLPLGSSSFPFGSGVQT
Sequence of Signal transducer and activator of transcription 1-alpha/beta (Homo sapiens) (P42224 whole entry, the tested form may be a part): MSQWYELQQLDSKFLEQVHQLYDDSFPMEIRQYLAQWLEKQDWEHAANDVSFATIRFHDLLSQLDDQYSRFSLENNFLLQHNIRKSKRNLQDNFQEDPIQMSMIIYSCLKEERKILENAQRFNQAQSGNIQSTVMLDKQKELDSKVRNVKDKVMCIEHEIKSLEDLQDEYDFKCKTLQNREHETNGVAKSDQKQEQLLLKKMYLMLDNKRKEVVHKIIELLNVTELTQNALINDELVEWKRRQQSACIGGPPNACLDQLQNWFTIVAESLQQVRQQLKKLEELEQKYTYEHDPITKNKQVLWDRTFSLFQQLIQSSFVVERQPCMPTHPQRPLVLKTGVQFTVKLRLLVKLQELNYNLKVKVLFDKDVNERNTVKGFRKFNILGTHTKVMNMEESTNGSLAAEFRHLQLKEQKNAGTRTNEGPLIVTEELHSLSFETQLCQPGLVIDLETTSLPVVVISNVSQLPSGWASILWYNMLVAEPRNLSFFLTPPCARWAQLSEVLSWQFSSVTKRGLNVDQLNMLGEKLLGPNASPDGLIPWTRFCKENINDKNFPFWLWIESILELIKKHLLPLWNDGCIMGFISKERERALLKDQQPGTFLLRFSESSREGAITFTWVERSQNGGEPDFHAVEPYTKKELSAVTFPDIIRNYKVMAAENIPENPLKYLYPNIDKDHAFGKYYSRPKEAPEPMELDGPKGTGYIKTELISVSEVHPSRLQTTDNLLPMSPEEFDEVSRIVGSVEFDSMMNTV
Sequence of Mitogen-activated protein kinase 9 (Homo sapiens) (P45984 whole entry, looked up, the tested form may be a part): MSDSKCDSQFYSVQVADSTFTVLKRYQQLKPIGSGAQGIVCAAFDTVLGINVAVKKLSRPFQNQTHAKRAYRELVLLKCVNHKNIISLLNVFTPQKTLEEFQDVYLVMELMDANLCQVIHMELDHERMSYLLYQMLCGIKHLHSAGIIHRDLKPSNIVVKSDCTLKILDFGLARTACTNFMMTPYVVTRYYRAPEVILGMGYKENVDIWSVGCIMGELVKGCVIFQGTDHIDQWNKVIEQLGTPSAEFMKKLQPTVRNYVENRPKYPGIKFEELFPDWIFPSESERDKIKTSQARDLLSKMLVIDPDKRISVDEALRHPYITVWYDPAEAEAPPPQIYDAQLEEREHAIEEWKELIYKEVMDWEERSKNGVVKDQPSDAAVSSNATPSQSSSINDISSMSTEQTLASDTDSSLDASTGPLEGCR

With `CC(C)(C)OC(=O)c1ccc(NC(=O)c2ccc(Cl)c(S(N)(=O)=O)c2)cc1` as the compound, how does the IC50 [1] read?
Its IC50 is 0.61 µM.

What about the inhibition [2] of the same compound?
The inhibition was 100%.

What about the inhibition [3] of the same compound?
Its inhibition is “inactive”.

What about the inhibition [4] of the same compound?
Its inhibition is 4.41%.

What about the inhibition [5] of the same compound?
Its inhibition is 2.23%.

And the inhibition [6]?
Its inhibition is 4.77%.

What about the inhibition [7] of the same compound?
Its inhibition is 3.58%.

What about the inhibition [8] of the same compound?
The inhibition was 1.25%.

What about the inhibition [9] of the same compound?
Its inhibition is -1.53%.

And the inhibition [10]?
The inhibition was 3.48%.

What about the inhibition [11] of the same compound?
Its inhibition is 1.72%.

What about the inhibition [12] of the same compound?
The inhibition was 1.56%.

What about the inhibition [13] of the same compound?
The inhibition was 5.19%.

And the inhibition [14]?
The inhibition was 3.33%.

And the inhibition [15]?
The inhibition was -2.27%.

And the inhibition [16]?
The inhibition was 2.93%.

What about the inhibition [17] of the same compound?
Its inhibition is 2.87%.

What about the inhibition [18] of the same compound?
The inhibition was 4.16%.

What about the inhibition [19] of the same compound?
The inhibition was 5.19%.

What about the inhibition [20] of the same compound?
Its inhibition is 4.76%.

What about the inhibition [21] of the same compound?
The inhibition was 87.9%.

What about the Activity [22] of the same compound?
Its Activity is “Active”.

And the Activity [23]?
Its Activity is “Active”.

And the Activity [24]?
The Activity was 6.75%.

What about the Activity [25] of the same compound?
Its Activity is 16.01%.

What about the Activity [26] of the same compound?
Its Activity is 23.14%.

What about the Activity [27] of the same compound?
Its Activity is “Non-Toxic”.
